Experimental data reported in article PMC10698194 (Nature Communications, 2023).
Bridge positions count the residues as written; N and C are the ends. Square brackets hold non-standard residues; d marks the D form. Peptide text beside a SMILES is read from it. * marks the point of attachment. X1 = C=CCN1CC[C@]23c4c5ccc(O)c4O[C@H]2[C@H](N*)CC[C@@]3(O)[C@H]1C5

Key:
Format in all cases: cell-based
mouse KOR, Gαi2 = biological target: T1, mouse KOR, Gαi2 (Mus musculus, UniProt P33534); assay: TRUPATH BRET G protein assay, Gαi2; details: TRUPATH
T1 construct: expressed in transfected cells; host or cells: HEK293T (ATCC, CRL-3216), transient
T1 sequence (P33534 whole entry): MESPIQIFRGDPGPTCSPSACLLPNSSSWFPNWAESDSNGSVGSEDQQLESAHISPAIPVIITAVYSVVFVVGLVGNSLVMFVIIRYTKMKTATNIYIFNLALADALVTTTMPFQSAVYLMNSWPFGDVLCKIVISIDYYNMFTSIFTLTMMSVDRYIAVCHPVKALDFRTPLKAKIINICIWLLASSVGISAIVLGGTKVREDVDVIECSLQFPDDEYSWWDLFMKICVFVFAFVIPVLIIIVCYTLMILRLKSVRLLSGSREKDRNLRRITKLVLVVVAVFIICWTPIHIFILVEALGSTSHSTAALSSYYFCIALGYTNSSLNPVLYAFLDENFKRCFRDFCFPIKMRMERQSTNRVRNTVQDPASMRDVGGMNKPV

human KOR E209A = biological target: T2, human KOR E209A (Homo sapiens, UniProt P41145, E209A); details: HEK-293T, KOR E209A
T2 construct: FLAG; expressed in transfected cells; host or cells: HEK293 / HEK293T, transient
T2 sequence (P41145 whole entry E209A): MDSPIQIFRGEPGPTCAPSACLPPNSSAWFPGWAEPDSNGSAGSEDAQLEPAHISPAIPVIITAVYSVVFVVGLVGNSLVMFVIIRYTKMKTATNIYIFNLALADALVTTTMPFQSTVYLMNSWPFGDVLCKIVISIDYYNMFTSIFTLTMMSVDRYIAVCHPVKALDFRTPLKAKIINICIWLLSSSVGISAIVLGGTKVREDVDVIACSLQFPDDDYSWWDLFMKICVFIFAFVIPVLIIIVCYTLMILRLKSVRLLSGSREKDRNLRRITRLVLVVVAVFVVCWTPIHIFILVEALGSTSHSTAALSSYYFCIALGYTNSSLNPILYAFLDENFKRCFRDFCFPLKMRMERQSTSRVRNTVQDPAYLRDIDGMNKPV

mouse KOR, GαoA = mouse KOR, GαoA (Mus musculus, UniProt P33534); assay: TRUPATH BRET G protein assay, GαoA; details: read-out: Emax (%) GαoA
Sequence of mouse KOR, GαoA (P33534 whole entry): as the sequence (P33534 whole entry) above
Sequence of mouse KOR, GαoA (P09471 2-354 partner): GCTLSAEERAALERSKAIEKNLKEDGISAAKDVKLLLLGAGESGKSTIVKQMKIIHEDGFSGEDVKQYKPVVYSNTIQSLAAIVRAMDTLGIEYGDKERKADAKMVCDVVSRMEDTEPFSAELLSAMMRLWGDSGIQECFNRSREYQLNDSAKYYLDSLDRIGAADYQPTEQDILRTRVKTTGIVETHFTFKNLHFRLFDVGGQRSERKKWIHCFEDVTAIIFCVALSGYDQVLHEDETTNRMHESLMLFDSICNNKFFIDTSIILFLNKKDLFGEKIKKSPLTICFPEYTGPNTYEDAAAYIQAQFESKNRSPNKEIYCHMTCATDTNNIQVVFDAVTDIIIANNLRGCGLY

## C=CCN1CC[C@]23c4c5ccc(O)c4O[C@H]2[C@H](NC(=O)[C@@H](Cc2ccccc2)NC(=O)[C@@H](NC(=O)[C@@H]2CSCC(=O)N[C@@H](Cc4ccc(O)cc4)C(=O)N[C@@H](C)C(=O)N[C@H](Cc4ccc(O)cc4)C(=O)N[C@@H]([C@@H](C)O)C(=O)N[C@@H]([C@@H](C)O)C(=O)N2)[C@@H](C)O)CC[C@@]3(O)[C@H]1C5 [DNCP-β-NalA(1)] ({CH2CO}-YA[dY]TTCT[dF]-X1; thioether N-6)
Mouse KOR, Gαi2
  Emax: 62 ± 6%
Human KOR E209A
  Emax: 99.31 ± 0.52%
Mouse KOR, GαoA
  Emax: 56 ± 7%
